Results on seven molecules are retold here after patent US11560376B2, “Amino acid compounds and methods of use” (Pliant Therapeutics, Inc., priority 2018, dated 2023).

As usually defined, the IC50 is the midpoint of a concentration-inhibition curve.

Where only a bound is given, the exact number is not on record here.

Chain of recombinant human integrin αvβ6 (P06756 31-992): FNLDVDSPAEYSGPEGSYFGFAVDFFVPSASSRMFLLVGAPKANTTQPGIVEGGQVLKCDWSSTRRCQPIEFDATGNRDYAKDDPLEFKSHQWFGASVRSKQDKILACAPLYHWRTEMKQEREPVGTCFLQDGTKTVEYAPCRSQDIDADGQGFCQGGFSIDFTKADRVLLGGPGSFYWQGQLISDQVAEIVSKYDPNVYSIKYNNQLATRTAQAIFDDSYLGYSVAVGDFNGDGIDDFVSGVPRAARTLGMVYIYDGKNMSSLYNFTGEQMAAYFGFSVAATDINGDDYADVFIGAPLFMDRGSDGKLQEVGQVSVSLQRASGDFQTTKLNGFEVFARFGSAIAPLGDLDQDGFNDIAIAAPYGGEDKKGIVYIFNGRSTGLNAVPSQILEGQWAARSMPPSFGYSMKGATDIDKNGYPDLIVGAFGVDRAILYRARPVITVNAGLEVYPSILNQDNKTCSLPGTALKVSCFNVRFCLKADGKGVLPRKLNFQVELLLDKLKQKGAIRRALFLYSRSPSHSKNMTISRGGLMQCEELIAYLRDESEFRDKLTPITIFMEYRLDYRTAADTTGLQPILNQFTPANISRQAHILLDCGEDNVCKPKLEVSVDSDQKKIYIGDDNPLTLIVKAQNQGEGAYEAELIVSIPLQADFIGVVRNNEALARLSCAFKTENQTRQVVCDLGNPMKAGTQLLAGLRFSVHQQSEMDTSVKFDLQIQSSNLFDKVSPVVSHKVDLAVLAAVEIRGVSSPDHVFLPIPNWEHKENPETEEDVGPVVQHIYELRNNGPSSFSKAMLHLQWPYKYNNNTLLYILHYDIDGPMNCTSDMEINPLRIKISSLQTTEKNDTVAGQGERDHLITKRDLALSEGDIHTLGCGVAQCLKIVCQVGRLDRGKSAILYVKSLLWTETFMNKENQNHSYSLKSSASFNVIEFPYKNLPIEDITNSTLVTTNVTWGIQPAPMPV
Chain of recombinant human integrin αvβ6 (P18564 22-707): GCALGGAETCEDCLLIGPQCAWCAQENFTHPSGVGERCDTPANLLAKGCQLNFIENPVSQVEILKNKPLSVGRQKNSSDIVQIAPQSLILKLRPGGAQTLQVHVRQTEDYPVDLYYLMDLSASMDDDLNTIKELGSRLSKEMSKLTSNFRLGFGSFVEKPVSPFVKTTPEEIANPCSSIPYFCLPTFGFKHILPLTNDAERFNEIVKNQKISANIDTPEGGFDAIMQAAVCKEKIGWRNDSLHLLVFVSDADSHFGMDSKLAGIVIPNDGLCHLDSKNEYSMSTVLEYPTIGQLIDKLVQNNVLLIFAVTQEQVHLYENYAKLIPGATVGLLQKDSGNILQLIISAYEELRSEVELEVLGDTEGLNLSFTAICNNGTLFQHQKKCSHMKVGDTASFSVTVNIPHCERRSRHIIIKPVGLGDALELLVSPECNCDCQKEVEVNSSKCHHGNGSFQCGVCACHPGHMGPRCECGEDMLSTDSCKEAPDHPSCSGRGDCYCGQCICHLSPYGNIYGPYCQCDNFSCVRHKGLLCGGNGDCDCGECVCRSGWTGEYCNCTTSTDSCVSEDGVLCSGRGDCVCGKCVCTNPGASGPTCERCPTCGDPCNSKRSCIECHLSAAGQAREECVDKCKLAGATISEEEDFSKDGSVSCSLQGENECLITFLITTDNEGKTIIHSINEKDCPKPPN

The target of this experiment is recombinant human integrin αvβ6 (Homo sapiens (Human), UniProt P06756+P18564). Nature of the experiment: Solid phase integrin αvβ6 binding assay. The following applies: TGFβ1 LAP as ligand, IC50 presented in four ranges, read-out: αvβ6 Inhibition IC50 (nM) - range. How it is done:
(§1) Microplates were coated with recombinant human integrin αvβ6 (2 μg/mL) in PBS (100 μL/well 25° C., overnight). The coating solution was removed, washed with wash buffer (0.05% Tween 20; 0.5 mM MnCl2; in 1×TBS). The plate was blocked with 200 μL/well of Block Buffer (1% BSA; 5% sucrose; 0.5 mM MnCl2; in 1×TBS) at 37° C. for 2 h. Dilutions of testing compounds and recombinant TGFβ1 LAP (0.67 μg/mL) in binding buffer (0.05% BSA; 2.5% sucrose; 0.5 mM MnCl2; in 1×TBS) were added. The plate was incubated for 2 hours at 25° C., washed, and incubated for 1 hour with Biotin-Anti-hLAP. Bound antibody was detected by peroxidase-conjugated streptavidin. The IC50 values for testing compounds were calculated by a four-parameter logistic regression.
The compounds tested were compound samples prepared according to procedures described in the Synthetic Examples section, with the stereochemical purity as indicated in the Examples.
as §1, with “A third series of exemplary compounds was selected for testing in the solid phase integrin αvβ6 binding assay. The compounds tested were compound samples prepared according to procedures described in the Synthetic Examples section, with the stereochemical purity as indicated in the Examples. As in Example B1, microplates” for “Microplates”
Turning to `Cn1ncc2c(N[C@@H](CCN(CCCCc3ccc4c(n3)NCCC4)CCS(C)(=O)=O)C(=O)O)ncnc21` [Compound 101, (S)-2-((1-methyl-1H-pyrazolo[3,4-d]pyrimidin-4-yl)amino)-4-((2-(methylsulfonyl)ethyl) (4-(5,6,7,8-tetrahydro-1,8-naphthyridin-2-yl)butyl)amino) butanoic acid], the IC50 lay in the range of 50 to 250 nM.
In the case of `O=C(O)[C@H](CCN(CCCCc1ccc2c(n1)NCCC2)CCC(F)F)Nc1ncc(Br)cn1` [Compound 131, (S)-2-((5-bromopyrimidin-2-yl)amino)-4-((3,3-difluoropropyl) (4-(5,6,7,8-tetrahydro-1,8-naphthyridin-2-yl)butyl)amino) butanoic acid], the IC50 was 50 to 250 nM.
Turning to `O=C(O)[C@H](CCN(CCCCc1ccc2c(n1)NCCC2)CCC(F)F)Nc1ncc(C2CC2)cn1` [Compound 135, (S)-2-((5-cyclopropylpyrimidin-2-yl)amino)-4-((3,3-difluoropropyl) (4-(5,6,7,8-tetrahydro-1,8-naphthyridin-2-yl)butyl)amino) butanoic acid], the IC50 was in the range of 50 to 250 nM.
For `O=C(O)[C@H](CCN(CCCCc1ccc2c(n1)NCCC2)C1CC1)Nc1ccncn1` [Compound 2, (S)-4-(cyclopropyl(4-(5,6,7,8-tetrahydro-1,8-naphthyridin-2-yl)butyl)amino)-2-(pyrimidin-4-ylamino) butanoic acid], the IC50 was 250 to 1000 nM.
Turning to `COC[C@@H](F)CN(CCCCc1ccc2c(n1)NCCC2)CC[C@H](Nc1ccncn1)C(=O)O` [Compound 127, (S)-4-(((S)-2-fluoro-3-methoxypropyl) (4-(5,6,7,8-tetrahydro-1,8-naphthyridin-2-yl)butyl)amino)-2-(pyrimidin-4-ylamino) butanoic acid], the IC50 was 250 to 1000 nM.
The figure for `COC[C@@H](F)CN(CCCCc1ccc2c(n1)NCCC2)CC[C@H](Nc1ncc(C#N)cn1)C(=O)O` [Compound 84, (S)-2-((5-cyanopyrimidin-2-yl)amino)-4-(((S)-2-fluoro-3-methoxypropyl) (4-(5,6,7,8-tetrahydro-1,8-naphthyridin-2-yl)butyl)amino) butanoic acid] is 250 to 1000 nM.
As for `CO[C@H](C)CN(CCCCc1ccc2c(n1)NCCC2)CC[C@H](Nc1ncncc1-c1ccccc1)C(=O)O` [Compound 81, (S)-4-(((R)-2-methoxypropyl) (4-(5,6,7,8-tetrahydro-1,8-naphthyridin-2-yl)butyl)amino)-2-((5-phenylpyrimidin-4-yl)amino) butanoic acid], the concentration for half-maximal inhibition (IC50) is less than 50 nM.
